Measured values taken from ChEMBL document CHEMBL2440076, “New triarylpyrazoles as broad-spectrum anticancer agents: design, synthesis, and biological evaluation” (Eur J Med Chem, 2013).

What was measured:
Format in all cases: functional
[1] = tested on: MDA-MB-435; assay: Growth inhibition of human MDA-MB-435 cells assessed as cell growth at 5X10'-5 M after 48 hrs by sulforhodamine B assay; conditions: MDA-MB-435, 48 h, read-out: Activity
[2] = tested on: M14; assay: Growth inhibition of human M14 cells assessed as cell growth at 5X10'-5 M after 48 hrs by sulforhodamine B assay; conditions: M14, 48 h, read-out: Activity
[3] = tested on: SNB-75; assay: Growth inhibition of human SNB75 cells assessed as cell growth at 5X10'-5 M after 48 hrs by sulforhodamine B assay; conditions: SNB-75, 48 h, read-out: Activity
[4] = tested on: SF-268; assay: Growth inhibition of human SF268 cells assessed as cell growth at 5X10'-5 M after 48 hrs by sulforhodamine B assay; conditions: SF-268, 48 h, read-out: Activity
[5] = tested on: NCI-H460; assay: Growth inhibition of human NCI-H460 cells assessed as cell growth at 5X10'-5 M after 48 hrs by sulforhodamine B assay; conditions: NCI-H460, 48 h, read-out: Activity
[6] = tested on: NCI-H226; assay: Growth inhibition of human NCI-H226 cells assessed as cell growth at 5X10'-5 M after 48 hrs by sulforhodamine B assay; conditions: NCI-H226, 48 h, read-out: Activity
[7] = tested on: SR; assay: Growth inhibition of human SR cells assessed as cell growth at 5X10'-5 M after 48 hrs by sulforhodamine B assay; conditions: read-out: Activity
[8] = tested on: A498; assay: Growth inhibition of human A498 cells assessed as cell growth at 5X10'-6 M after 48 hrs by sulforhodamine B assay; conditions: A498, 48 h, read-out: Activity
[9] = tested on: SK-OV-3; assay: Growth inhibition of human SKOV3 cells assessed as cell growth at 5X10'-6 M after 48 hrs by sulforhodamine B assay; conditions: SK-OV-3, 48 h, read-out: Activity
[10] = tested on: OVCAR-5; assay: Growth inhibition of human OVCAR5 cells assessed as cell growth at 5X10'-6 M after 48 hrs by sulforhodamine B assay; conditions: OVCAR-5, 48 h, read-out: Activity
[11] = tested on: SF-295; assay: Growth inhibition of human SF295 cells assessed as cell growth at 5X10'-6 M after 48 hrs by sulforhodamine B assay; conditions: SF-295, 48 h, read-out: Activity
[12] = tested on: HCT-116; assay: Growth inhibition of human HCT116 cells assessed as cell growth at 5X10'-6 M after 48 hrs by sulforhodamine B assay; conditions: HCT-116, 48 h, read-out: Activity
[13] = tested on: K562; assay: Growth inhibition of human K562 cells assessed as cell growth at 5X10'-6 M after 48 hrs by sulforhodamine B assay; conditions: K562, 48 h, read-out: Activity
[14] = tested on: T47D; assay: Growth inhibition of human T47D cells assessed as cell growth at 5X10'-7 M after 48 hrs by sulforhodamine B assay; conditions: read-out: Activity
[15] = tested on: BT-549; assay: Growth inhibition of human BT549 cells assessed as cell growth at 5X10'-7 M after 48 hrs by sulforhodamine B assay; conditions: BT-549, 48 h, read-out: Activity
[16] = tested on: CAKI-1; assay: Growth inhibition of human CAKI-1 cells assessed as cell growth at 5X10'-7 M after 48 hrs by sulforhodamine B assay; conditions: CAKI-1, 48 h, read-out: Activity
[17] = tested on: OVCAR-8; assay: Growth inhibition of human OVCAR8 cells assessed as cell growth at 5X10'-7 M after 48 hrs by sulforhodamine B assay; conditions: OVCAR-8, 48 h, read-out: Activity
[18] = tested on: UACC-62; assay: Growth inhibition of human UACC62 cells assessed as cell growth at 5X10'-7 M after 48 hrs by sulforhodamine B assay; conditions: UACC-62, 48 h, read-out: Activity
[19] = tested on: SK-MEL-2; assay: Growth inhibition of human SK-MEL-2 cells assessed as cell growth at 5X10'-7 M after 48 hrs by sulforhodamine B assay; conditions: SK-MEL-2, 48 h, read-out: Activity
[20] = tested on: MDA-MB-435; assay: Growth inhibition of human MDA-MB-435 cells assessed as cell growth at 5X10'-7 M after 48 hrs by sulforhodamine B assay; conditions: MDA-MB-435, 48 h, read-out: Activity
[21] = tested on: HCT-116; assay: Growth inhibition of human HCT116 cells assessed as cell growth at 5X10'-7 M after 48 hrs by sulforhodamine B assay; conditions: HCT-116, 48 h, read-out: Activity
[22] = tested on: NCI-H23; assay: Growth inhibition of human NCI-H23 cells assessed as cell growth at 5X10'-7 M after 48 hrs by sulforhodamine B assay; conditions: NCI-H23, 48 h, read-out: Activity
[23] = tested on: HOP-62; assay: Growth inhibition of human HOP62 cells assessed as cell growth at 5X10'-7 M after 48 hrs by sulforhodamine B assay; conditions: HOP-62, 48 h, read-out: Activity
[24] = tested on: PC-3; assay: Growth inhibition of human PC3 cells assessed as cell growth at 5X10'-8 M after 48 hrs by sulforhodamine B assay; conditions: PC-3, 48 h, read-out: Activity
[25] = tested on: ACHN; assay: Growth inhibition of human ACHN cells assessed as cell growth at 5X10'-8 M after 48 hrs by sulforhodamine B assay; conditions: read-out: Activity
[26] = tested on: UACC-62; assay: Growth inhibition of human UACC62 cells assessed as cell growth at 5X10'-8 M after 48 hrs by sulforhodamine B assay; conditions: UACC-62, 48 h, read-out: Activity
[27] = tested on: BT-549; assay: Growth inhibition of human BT549 cells assessed as cell growth at 5X10'-5 M after 48 hrs by sulforhodamine B assay; conditions: BT-549, 48 h, read-out: Activity
[28] = tested on: DU-145; assay: Growth inhibition of human DU145 cells assessed as cell growth at 5X10'-5 M after 48 hrs by sulforhodamine B assay; conditions: DU-145, 48 h, read-out: Activity
[29] = tested on: A498; assay: Growth inhibition of human A498 cells assessed as cell growth at 5X10'-5 M after 48 hrs by sulforhodamine B assay; conditions: A498, 48 h, read-out: Activity
[30] = tested on: OVCAR-4; assay: Growth inhibition of human OVCAR4 cells assessed as cell growth at 5X10'-5 M after 48 hrs by sulforhodamine B assay; conditions: OVCAR-4, 48 h, read-out: Activity
[31] = tested on: SK-MEL-5; assay: Growth inhibition of human SK-MEL-5 cells assessed as cell growth at 5X10'-5 M after 48 hrs by sulforhodamine B assay; conditions: SK-MEL-5, 48 h, read-out: Activity
[32] = tested on: SK-MEL-2; assay: Growth inhibition of human SK-MEL-2 cells assessed as cell growth at 5X10'-5 M after 48 hrs by sulforhodamine B assay; conditions: SK-MEL-2, 48 h, read-out: Activity
[33] = tested on: NCI-H522; assay: Growth inhibition of human NCI-H522 cells assessed as cell growth at 5X10'-8 M after 48 hrs by sulforhodamine B assay; conditions: NCI-H522, 48 h, read-out: Activity
[34] = Growth inhibition of human Hs 578T cells assessed as cell growth at 5X10'-9 M after 48 hrs by sulforhodamine B assay; conditions: read-out: Activity
[35] = tested on: PC-3; assay: Growth inhibition of human PC3 cells assessed as cell growth at 5X10'-9 M after 48 hrs by sulforhodamine B assay; conditions: PC-3, 48 h, read-out: Activity
[36] = tested on: OVCAR-4; assay: Growth inhibition of human OVCAR4 cells assessed as cell growth at 5X10'-9 M after 48 hrs by sulforhodamine B assay; conditions: OVCAR-4, 48 h, read-out: Activity
[37] = tested on: SF-295; assay: Growth inhibition of human SF295 cells assessed as cell growth at 5X10'-9 M after 48 hrs by sulforhodamine B assay; conditions: SF-295, 48 h, read-out: Activity

Compound	growth at 50 µM [1]	growth at 50 µM [2]	growth at 50 µM [3]	growth at 50 µM [4]	growth at 50 µM [5]	growth at 50 µM [6]	growth at 50 µM [7]	growth at 5 µM [8]	growth at 5 µM [9]	growth at 5 µM [10]	growth at 5 µM [11]	growth at 5 µM [12]	growth at 5 µM [13]	growth at 0.5 µM [14]	growth at 0.5 µM [15]	growth at 0.5 µM [16]	growth at 0.5 µM [17]	growth at 0.5 µM [18]	growth at 0.5 µM [19]	growth at 0.5 µM [20]	further results
COc1cc(-c2nn(-c3cccc(NC(=O)c4cccc(C(F)(F)F)c4)c3)cc2-c2ccncc2)ccc1Cl	-37%	12%	8%	8%	-10%	-7%	-2%	-21%	24%	46%	-24%	12%	9%	84%	102%	90%	91%	83%	91%	69%	growth at 0.5 µM [21]: 92%; growth at 0.5 µM [22]: 86%; growth at 0.5 µM [23]: 97%; growth at 0.05 µM [24]: 99%; growth at 0.05 µM [25]: 103%; growth at 0.05 µM [26]: 96%; growth at 50 µM [27]: -1%; growth at 50 µM [28]: -4%; growth at 50 µM [29]: -28%; growth at 50 µM [30]: 29%; growth at 50 µM [31]: -51%; growth at 50 µM [32]: 6%; growth at 0.05 µM [33]: 92%; growth at 0.005 µM [34]: 91%; growth at 0.005 µM [35]: 98%; growth at 0.005 µM [36]: 94%; growth at 0.005 µM [37]: 94%
O=C(Nc1cccc(-n2cc(-c3ccncc3)c(-c3ccc(Cl)c(O)c3)n2)c1)Nc1cc(C(F)(F)F)cc(C(F)(F)F)c1	-69%	-86%	-75%	-65%	-78%	-58%	-8%	-4%	-13%	-54%	-57%	-87%	-5%	88%	109%	74%	52%	69%	101%	79%	growth at 0.5 µM [21]: 46%; growth at 0.5 µM [22]: 80%; growth at 0.5 µM [23]: 96%; growth at 0.05 µM [24]: 89%; growth at 0.05 µM [25]: 96%; growth at 0.05 µM [26]: 92%; growth at 50 µM [27]: -90%; growth at 50 µM [28]: -97%; growth at 50 µM [29]: -95%; growth at 50 µM [30]: -74%; growth at 50 µM [31]: -94%; growth at 50 µM [32]: -77%; growth at 0.05 µM [33]: 102%; growth at 0.005 µM [34]: 97%; growth at 0.005 µM [35]: 90%; growth at 0.005 µM [36]: 95%; growth at 0.005 µM [37]: 92%
O=C(Nc1cccc(-n2cc(-c3ccncc3)c(-c3ccc(Cl)c(O)c3)n2)c1)c1ccc(N2CCOCC2)c(C(F)(F)F)c1	1%	-50%	8%	30%	-10%	58%	8%	92%	72%	111%	13%	35%	11%	105%	111%	98%	86%	97%	102%	85%	growth at 0.5 µM [21]: 99%; growth at 0.5 µM [22]: 96%; growth at 0.5 µM [23]: 117%; growth at 0.05 µM [24]: 96%; growth at 0.05 µM [25]: 99%; growth at 0.05 µM [26]: 100%; growth at 50 µM [27]: 36%; growth at 50 µM [28]: 26%; growth at 50 µM [29]: 6%; growth at 50 µM [30]: 46%; growth at 50 µM [31]: -70%; growth at 50 µM [32]: -36%; growth at 0.05 µM [33]: 94%; growth at 0.005 µM [34]: 92%; growth at 0.005 µM [35]: 100%; growth at 0.005 µM [36]: 93%; growth at 0.005 µM [37]: 93%
